Assay results published in patent US9890142B2, “PDE4 inhibitor” (Meiji Seika Pharma Co., Ltd., priority 2013, dated 2018).

tested on: PDE4; assay: Evaluation of PDE4 inhibition (scintillation proximity assay); type: biochemical; conditions: inhibition rate relative to control, test compound at 1 μM
In short: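 PDE4 was incubated 120 min at room temperature with [3H]-cAMP and compound in 50 mM Tris-HCl pH 7.5, 8.3 mM MgCl2, 1.7 mM EDTA, 0.3 mg/mL BSA. Product captured on ZnSO4-containing YSi-SPA beads and counted; inhibition calculated against DMSO control after no-enzyme blank subtraction.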

Compared with `C[C@H]1CNCCN1c1nc2cc(Cl)cc(-c3ccsc3)c2o1` [Example 16, (S)-5-Chloro-2-(2-methylpiperazin-1-yl)-7-(thiophen-3-yl)benzoxazole], `C[C@H]1CNCCN1c1nc2cc(Cl)cc(-c3cccnc3)c2o1` [Example 42, (S)-5-Chloro-2-(2-methylpiperazin-1-yl)-7-(pyridin-3-yl)benzoxazole] is lower in “PDE4 inhibitory activity (1 μM (%))” value: 75% for the first, 66% for the second.

Compared with `Cc1cc(Cl)cc2nc(N3CCNC[C@@H]3C)oc12` [Example 154, (S)-5-Chloro-7-methyl-2-(2-methylpiperazin-1-yl)benzoxazole], `Cc1cc(Br)cc2nc(N3CCNC[C@@H]3C)oc12` [Example 6, (S)-5-Bromo-7-methyl-2-(2-methylpiperazin-1-yl)benzoxazole] is lower in “PDE4 inhibitory activity (1 μM (%))” value: 39% for the first, 36% for the second.

Going from `C[C@H]1CNCCN1c1nc2c(C#N)c(Cl)cc(-c3nccs3)c2o1` [Example 143, (S)-5-Chloro-4-cyano-2-(2-methylpiperazin-1-yl)-7-(thiazol-2-yl)benzoxazole] to `C[C@@H]1CNCCN1c1nc2c(C(F)(F)F)c(Cl)cc(-c3nccs3)c2o1` [Example 179, (R)-5-Chloro-2-(2-methylpiperazin-1-yl)-7-(thiazol-2-yl)-4-(trifluoromethyl)benzoxazole], the “PDE4 inhibitory activity (1 μM (%))” value falls from 94% to 79%.

First: C[C@H]1CNCCN1c1nc2cc(Cl)c(OC(F)(F)F)c(-c3nccs3)c2o1 [Example 160, (S)-5-Chloro-2-(2-methylpiperazin-1-yl)-7-(thiazol-2-yl)-6-(trifluoromethoxy)benzoxazole]
Second: C[C@@H]1CNCCN1c1nc2c(OC(F)(F)F)c(Cl)cc(-c3nccs3)c2o1 [Example 158, (R)-5-Chloro-2-(2-methylpiperazin-1-yl)-7-(thiazol-2-yl)-4-(trifluoromethoxy)benzoxazole]
The “PDE4 inhibitory activity (1 μM (%))” value of the first is lower: 86% for the first, 88% for the second.

First: C[C@H]1CNCCN1c1nc2cc(Cl)cc(Oc3ccccc3)c2o1 [Example 70, (S)-5-Chloro-2-(2-methylpiperazin-1-yl)-7-phenoxybenzoxazole]
Second: C[C@H]1CNCCN1c1nc2cc(Cl)cc(-c3ccccc3)c2o1 [Example 19, (S)-5-Chloro-2-(2-methylpiperazin-1-yl)-7-phenylbenzoxazole]
The “PDE4 inhibitory activity (1 μM (%))” value of the first is lower: 38% for the first, 76% for the second.

First: C[C@H]1CNCCN1c1nc2cc(Cl)cc(-n3cncn3)c2o1 [Example 46, (S)-5-Chloro-2-(2-methylpiperazin-1-yl)-7-(1H-1,2,4-triazol-1-yl)benzoxazole]
Second: C[C@H]1CNCCN1c1nc2cc(Cl)cc(-n3nccn3)c2o1 [Example 45, (S)-5-Chloro-2-(2-methylpiperazin-1-yl)-7-(2H-1,2,3-triazol-2-yl)benzoxazole]
The “PDE4 inhibitory activity (1 μM (%))” value of the first is lower: 29% for the first, 87% for the second.

First: Cc1cc2oc(N3CCNC[C@@H]3C)nc2cc1Cl [Example 170, (S)-5-Chloro-6-methyl-2-(2-methylpiperazin-1-yl)benzoxazole]
Second: COc1cc2oc(N3CCNC[C@@H]3C)nc2cc1Cl [Example 171, (S)-5-Chloro-6-methoxy-2-(2-methylpiperazin-1-yl)benzoxazole]
The “PDE4 inhibitory activity (1 μM (%))” value of the first is higher: 15% for the first, 14% for the second.

Going from `C[C@H]1CNCCN1c1nc2cc(C#N)cc(-c3ccccn3)c2o1` [Example 111, (S)-5-Cyano-2-(2-methylpiperazin-1-yl)-7-(pyridin-2-yl)benzoxazole] to `C[C@H]1CNCCN1c1nc2c(I)c(Cl)cc(-c3ccccn3)c2o1` [Example 146, (S)-5-Chloro-4-iodo-2-(2-methylpiperazin-1-yl)-7-(pyridin-2-yl)benzoxazole], the “PDE4 inhibitory activity (1 μM (%))” value rises from 83% to 95%.

Compared with `C[C@H]1CNCCN1c1nc2cc(Cl)cc(-c3ncc(Cl)s3)c2o1` [Example 74, (S)-5-Chloro-7-(5-chlorothiazol-2-yl)-2-(2-methylpiperazin-1-yl)benzoxazole], `C[C@H]1CNCCN1c1nc2cc(Cl)cc(-c3ncon3)c2o1` [Example 105, (S)-5-Chloro-2-(2-methylpiperazin-1-yl)-7-(1,2,4-oxadiazol-3-yl)benzoxazole] is lower in “PDE4 inhibitory activity (1 μM (%))” value: 83% for the first, 61% for the second.

Going from `C[C@H]1CNCCN1c1nc2cc(Cl)cc(N3CCCCC3)c2o1` [Example 22, (S)-5-Chloro-2-(2-methylpiperazin-1-yl)-7-(piperidin-1-yl)benzoxazole] to `C[C@H]1CNCCN1c1nc2cc(Cl)cc(N3CCOC3=O)c2o1` [Example 72, (S)-5-Chloro-2-(2-methylpiperazin-1-yl)-7-(2-oxo-oxazolidin-3-yl)benzoxazole], the “PDE4 inhibitory activity (1 μM (%))” value falls from 40% to 28%.

Compared with `C[C@H]1CNCCN1c1nc2c(F)c(Cl)cc(-n3cccn3)c2o1` [Example 130, (S)-5-Chloro-4-fluoro-2-(2-methylpiperazin-1-yl)-7-(1H-pyrazol-1-yl)benzoxazole], `C[C@H]1CNCCN1c1nc2c(F)c(F)cc(-n3cccn3)c2o1` [Example 91, (S)-4,5-Difluoro-2-(2-methylpiperazin-1-yl)-7-(1H-pyrazol-1-yl)benzoxazole] is higher in “PDE4 inhibitory activity (1 μM (%))” value: 83% for the first, 89% for the second.

Going from `C[C@H]1CNCCN1c1nc2cc(Cl)cc(-c3ccno3)c2o1` [Example 109, (S)-5-Chloro-7-(isoxazol-5-yl)-2-(2-methylpiperazin-1-yl)benzoxazole] to `C[C@H]1CNCCN1c1nc2cc(Cl)cc(Br)c2o1` [Example 110, (S)-7-Bromo-5-chloro-2-(2-methylpiperazin-1-yl)benzoxazole], the “PDE4 inhibitory activity (1 μM (%))” value falls from 61% to 57%.

Going from `COCc1cc(Cl)cc2nc(N3CCNC[C@@H]3C)oc12` [Example 107, (S)-5-Chloro-7-(methoxymethyl)-2-(2-methylpiperazin-1-yl)benzoxazole] to `CC(C)c1cc(Cl)cc2nc(N3CCNC[C@@H]3C)oc12` [Example 1, (S)-5-Chloro-7-isopropyl-2-(2-methylpiperazin-1-yl)benzoxazole], the “PDE4 inhibitory activity (1 μM (%))” value rises from 66% to 87%.

Going from `C[C@H]1CNCCN1c1nc2cc(Cl)cc(Oc3nccs3)c2o1` [Example 77, (S)-5-Chloro-2-(2-methylpiperazin-1-yl)-7-(thiazol-2-yloxy)benzoxazole] to `CC(=O)c1cc(Cl)cc2nc(N3CCNC[C@@H]3C)oc12` [Example 3, (S)-7-Acetyl-5-chloro-2-(2-methylpiperazin-1-yl)benzoxazole], the “PDE4 inhibitory activity (1 μM (%))” value rises from 30% to 50%.

Going from `CCOC(=O)c1cc(Cl)cc2nc(N3CCNC[C@@H]3C)oc12` [Example 9, (S)-5-Chloro-7-ethoxycarbonyl-2-(2-methylpiperazin-1-yl)benzoxazole] to `CNC(=O)c1cc(Cl)cc2nc(N3CCNC[C@@H]3C)oc12` [Example 100, (S)-5-Chloro-7-methylaminocarbonyl-2-(2-methylpiperazin-1-yl)benzoxazole], the “PDE4 inhibitory activity (1 μM (%))” value falls from 50% to 16%.

First: C[C@H]1CNCCN1c1nc2c(-n3cccn3)cc(Cl)cc2o1 [Example 166, (S)-6-Chloro-2-(2-methylpiperazin-1-yl)-4-(1H-pyrazol-1-yl)benzoxazole]
Second: C[C@H]1CNCCN1c1nc2cc(Cl)cc(C3CC3)c2o1 [Example 27, (S)-5-Chloro-7-cyclopropyl-2-(2-methylpiperazin-1-yl)benzoxazole]
The “PDE4 inhibitory activity (1 μM (%))” value of the first is lower: 71% for the first, 85% for the second.

Going from `C[C@H]1CNCCN1c1nc2cc(Cl)cc(C3CCCC3)c2o1` [Example 31, (S)-5-Chloro-7-cyclopentyl-2-(2-methylpiperazin-1-yl)benzoxazole] to `C[C@H]1CNCCN1c1nc2cc(Cl)cc(NC3CCCC3)c2o1` [Example 24, (S)-5-Chloro-7-(cyclopentylamino)-2-(2-methylpiperazin-1-yl)benzoxazole], the “PDE4 inhibitory activity (1 μM (%))” value falls from 51% to 27%.

Compared with `C[C@H]1CNCCN1c1nc2cc(Br)ccc2o1` [Example 167, (S)-5-Bromo-2-(2-methylpiperazin-1-yl)benzoxazole], `C[C@H]1CNCCN1c1nc2cc(Cl)cc(-c3ccccc3CO)c2o1` [Example 48, (S)-5-Chloro-2-(2-methylpiperazin-1-yl)-7-(2-hydroxymethylphenyl)benzoxazole] is higher in “PDE4 inhibitory activity (1 μM (%))” value: 16% for the first, 53% for the second.

First: C[C@@H]1CNCCN1c1nc2c(C(F)(F)F)c(Cl)cc(-c3ccccn3)c2o1 [Example 178, (R)-5-Chloro-2-(2-methylpiperazin-1-yl)-7-(pyridin-2-yl)-4-(trifluoromethyl)benzoxazole]
Second: C[C@H]1CNCCN1c1nc2cc(Cl)c(C(F)(F)F)c(-c3ccccn3)c2o1 [Example 85, (S)-5-Chloro-2-(2-methylpiperazin-1-yl)-7-(pyridin-2-yl)-6-(trifluoromethyl)benzoxazole]
The “PDE4 inhibitory activity (1 μM (%))” value of the first is higher: 33% for the first, 26% for the second.

In the case of `FC(F)(F)Oc1c(Cl)cc(-c2nccs2)c2oc(N3CCNCC3)nc12` [Example 175, 5-Chloro-2-(piperazin-1-yl)-7-(thiazol-2-yl)-4-(trifluoromethoxy)benzoxazole], the “PDE4 inhibitory activity (1 μM (%))” value is reported as 96%.

`CCc1cc(Cl)cc2nc(N3CCNC[C@@H]3CC(C)C)oc12` [Example 12, (S)-5-Chloro-7-ethyl-2-(2-isobutylpiperazin-1-yl)benzoxazole] was tested, and the “PDE4 inhibitory activity (1 μM (%))” value was less than 10%.
For `C[C@H]1CNCCN1c1nc2cc(Cl)cc(C(=O)NO)c2o1` [Example 98, (S)-5-Chloro-7-hydroxyaminocarbonyl-2-(2-methylpiperazin-1-yl)benzoxazole], the “PDE4 inhibitory activity (1 μM (%))” value was less than 10%.
